Data: patent publication EP4682156A1, “LINKER AND DRUG CONJUGATE USING SAME, AND ANTIBODY-DRUG CONJUGATE AND USE THEREOF” (Shanghai Affinity Biopharmaceutical Co., Ltd., priority 2023, dated 2024)
*1 amine or outer side, *2 acyl side, *3 side chain or, on linkers, in order; H or OH if unused. Where a SMILES comes first, the peptide text is derived from it. [ ]: non-standard residue; d: D form. The star is where a group is joined. Exatecan = CC[C@@]1(O)C(=O)OCc2c1cc1n(c2=O)Cc2c-1nc1cc(F)c(C)c3c1c2[C@@H](N*)CC3; Hexanoyl(6-maleimido) = O=C1C=CC(=O)N1CCCCCC(=O)*; Propanoyl(3-maleimido) = O=C1C=CC(=O)N1CCC(=O)*; PEG6 = NCCOCCOCCOCCOCCOCCOCCC(=O)O; NHCH2OCH2CO = O=C(COCN[*:1])[*:2]

Key:
[1] = Stability in human plasma; conditions: 20 hours, 37°C
[2] = Stability in monkey liver homogenate; assay type: in vitro ADME; conditions: 20 hours, 37°C, pH 5.0
Experimental: (§1) • Assay buffer: 25 mM MES, pH 5.0. • Protein precipitation agent: DMSO/MEOH = 1:1
(§2) Preparation of sample solution: An appropriate amount of MI-PEG6-GGFL-AM-DXD and EMC-GGFG-AM-DXD were weighed and added with a certain amount of DMSO solution to make the concentration of the stock solution thereof being 10 umol/mL. Then 10uL of the stock solution were taken and added with 80uL of DMSO to dilute to 1 umol/mL. Then pure water was added in a ratio of 1:4 to dilute the sample solution to a concentration of 0.2 umol/mL.
(§3) An appropriate amount of fast frozen liver by liquid nitrogen was placed in a 4 mL EP tube and weighed. Assay buffer with pH 5.0 was added at a mass-to-volume ratio of 1:5. The tissue was homogenized using a tissue grinder for 3 min. The liver homogenate was then centrifuged at 12,000 rpm for 5 min. The supernatant was collected and stored in a -40°C refrigerator for later use.
(§4) The sample solution and the liver homogenate were respectively taken at a volume ratio of 1:9 and shaken thoroughly. Another sample solution and buffer solution (pH 5.0) were also shaken thoroughly at a volume ratio of 1:9 as a blank control solution. The solution was placed in a 37°C constant temperature water bath. 30uL was taken at 0h, 2h, 4h, and 20h, and added with 90uL of protein precipitation agent and shaken thoroughly. […]

cathepsin B = cathepsin B (Homo sapiens, UniProt P07858); experiment: Enzymatic cleavage by cathepsin B, released DXD quantified by HPLC; assay type: biochemical; conditions: 20 hours of action of cathepsin B, 37°C, pH 5.0
Experimental: (§5) About 25 mg of DXD reference substance was accurately weighed and placed in a 5 mL volumetric flask. DMSO was added to the scale mark and the mixture was mixed to prepare a 10 mM solution which was marked as the standard stock solution. The standard stock solution was taken and prepared into standard solutions with concentrations of 20nmol/mL, 10nmol/mL, 5nmol/mL, 2nmol/mL, 1nmol/mL, and 0.2nmol/mL. 10uL was taken and injected into HPLC, the peak area was recorded. The linear equation was calculated by using the peak area as the ordinate and the concentration as the abscissa.
(§6) • chromatographic column: Agilent Eclipse Plus C18 5um, 4.6*250mm • Fluorescence detector: […] • Mobile phase A: 0.1%TFA/H2O B: ACN • Flow rate: 1ml/min • Injection volume: 10uL
• Activation buffer: 25mM MES, 5mM DTT, pH 5.0 • Assay buffer: 25 mM MES, pH 5.0. • Cathepsin B: 100 µg/mL in activation buffer, incubated at room temperature for 15 minutes
Preparation of sample solution: An appropriate amount of MI-PEG6-GGFL-AM-DXD and EMC-GGFG-AM-DXD were respectively weighed and added with a certain amount of DMSO solution to make the concentration of the stock solution thereof being 10 umol/mL. Then 10uL of the stock solution was respectively taken and added with 80uL of DMSO to dilute to 1 umol/mL. […]

cathepsin L [3] = target: T1, cathepsin L (Homo sapiens, UniProt P07711); experiment: Enzymatic cleavage by cathepsin L, released DXD quantified by HPLC; assay type: biochemical; conditions: pH 6
[4] = Stability in monkey heart homogenate; assay type: in vitro ADME; conditions: 20 hours, 37°C, pH 5.0
Experimental: as §1, §2
as §3, with “heart” for “liver”
as §4, with “heart” for “liver”

[5] = Stability in human plasma; assay type: in vitro ADME; conditions: within 20 hours
Experimental: • PBS buffer: pH = 7.2 • Protein precipitation agent: DMSO/MEOH = 1:1
as §2, with “and GGFG-AM-DXD” for “and EMC-GGFG-AM-DXD”, “solution was” for “solution were”
An appropriate amount of sample was weighed and prepared into a 1 mM solution with DMSO. Human plasma was added at a volume ratio of 1:9 and the solution was incubated in a 37°C incubator. Samples were taken after 0, 2, 4, 6, and 20 h. DMSO/MEOH (1:1) was added at a volume ratio of 1:3 to remove protein. The solution was centrifuged at 12,000 rpm for 5 min and the supernatant was collected. The HPLC method was as described in 1.2 of Example 4.

Human Fibrosarcoma = experiment: Drug efficacy study of drug conjugates on human fibrosarcoma tumor model; assay type: in vivo, Nude mice
cathepsin L [6] = target: T1, cathepsin L; experiment: Enzymatic cleavage by cathepsin L, released DXD quantified by HPLC; assay type: biochemical; conditions: within 20 h
Experimental: as §5, §6
• Assay Buffer: 50mM MES, 5mM DTT, 1mM EDTA, 0.005% (w/v) Brij-35, pH6.0. • Cathepsin L: 100 µg/mL in assay buffer, incubated on ice for 15 min.
Preparation of sample solution: An appropriate amount of L-AM-DXD was weighed and added with a certain amount of DMSO solution to make the concentration of the stock solution being 10 umol/mL. Then 10uL of the stock solution was taken and added with 80uL of DMSO to dilute to 1 umol/mL. Then pure water was added in a ratio of 1:4 to dilute the sample solution to a concentration of 0.2 umol/mL. […]

[7] = Activation in human gastric cancer tumor homogenate (tumor homogenate 1); conditions: tumor homogenate 1, after 20 hours, 37°C, pH 5.0
[8] = Activation in CT26 tumor homogenate (tumor homogenate 2); conditions: tumor homogenate 2 (CT26), 20 hours, 37°C, pH 5.0
[9] = 5 µmol/kg (1/10 MTD) once a week for 3 weeks, Day 20

T1 sequence (P07711 114-333): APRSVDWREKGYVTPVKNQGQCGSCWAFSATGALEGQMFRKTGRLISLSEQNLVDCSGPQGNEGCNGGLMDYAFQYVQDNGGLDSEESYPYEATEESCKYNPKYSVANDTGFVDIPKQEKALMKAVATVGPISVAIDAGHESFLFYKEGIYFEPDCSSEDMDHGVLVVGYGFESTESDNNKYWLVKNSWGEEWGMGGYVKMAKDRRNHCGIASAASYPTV

Compound: CC[C@@]1(O)C(=O)OCc2c1cc1n(c2=O)Cc2c-1nc1cc(F)c(C)c3c1c2[C@@H](NC(=O)COCNC(=O)CNC(=O)[C@H](Cc1ccccc1)NC(=O)CNC(=O)CNC(=O)CCCCCN1C(=O)C=CC1=O)CC3 [EMC-GGFG-AM-DXD, reference compound] ({Hexanoyl(6-maleimido)}-GGFG[NHCH2OCH2CO]-Exatecan)
- DXD produced, share of the substrate [1]: 2.88%
- substrate contents [1]: 97.1%
- DXD produced, share of the substrate [2]: 27.6%
- DXD produced by enzymatic cleavage, share of the reaction substrate (cathepsin B): 45.2%
- DXD produced, share of the reaction substrate (enzymatic cleavage activation efficiency) (cathepsin L [3]): 27.8%
- DXD produced, share of the substrate [4]: 7.41%

Compound: CC[C@@]1(O)C(=O)OCc2c1cc1n(c2=O)Cc2c-1nc1cc(F)c(C)c3c1c2[C@@H](NC(=O)COCNC(=O)[C@H](CC(C)C)NC(=O)[C@H](Cc1ccccc1)NC(=O)CNC(=O)CNC(=O)CCOCCOCCOCCOCCOCCOCCNC(=O)CCN1C(=O)C=CC1=O)CC3 [S7, MI-PEG6-GGFL-AM-DXd] ({Propanoyl(3-maleimido)-PEG6}-GGFL[NHCH2OCH2CO]-Exatecan)
- Generated load % [5]: 1.7%
- Substrate content % [5]: 98.3%
- Anti-tumor rate% Day 20 (Human Fibrosarcoma; [9]): 98%
- Tumor volume(mm^3) Day 20 (Human Fibrosarcoma; [9]): 20 mm^3
- treatment efficacy compared with DXd (Human Fibrosarcoma; same dose 5 µmol/kg once a week for 3 weeks): significantly improved treatment efficacy
- Enzymatic cleavage efficiency % (cathepsin L [6]): 98.3%

Compound: CC[C@@]1(O)C(=O)OCc2c1cc1n(c2=O)Cc2c-1nc1cc(F)c(C)c3c1c2[C@@H](NC(=O)COCNC(=O)[C@H](CC(C)C)NC(=O)[C@H](Cc1ccccc1)NC(=O)CNC(=O)CNC(=O)CCOCCOCCOCCOCCOCCOCCNC(=O)CCN1C(=O)C=CC1=O)CC3 [GGFL-AM-DXD] ({Propanoyl(3-maleimido)-PEG6}-GGFL[NHCH2OCH2CO]-Exatecan)
- DXD produced, share of the substrate [7]: 94.2%
- DXD produced, share of the substrate [8]: 98.7%
